Test results as given in patent publication US20230265151A1, “GIP/GLP1 CO-AGONIST COMPOUNDS” (priority 2020, published 2023).
Where two headings read alike, the source gives them in different places.

Key:
[1] = target: T1, human GLP-1 receptor (hGLP-1R) (Homo sapiens, UniProt P43220); assay: [125I]-GLP-1 binding, SPA with membranes of HEK293 cells expressing hGLP-1R; conditions: human GLP-1R; geometric mean (SEM, n); read-out: Binding Affinity Ki, nM (SEM, n) hGLP-1R
T1 construct: expressed in transfected cells; crude membranes
T1 sequence (P43220 24-463): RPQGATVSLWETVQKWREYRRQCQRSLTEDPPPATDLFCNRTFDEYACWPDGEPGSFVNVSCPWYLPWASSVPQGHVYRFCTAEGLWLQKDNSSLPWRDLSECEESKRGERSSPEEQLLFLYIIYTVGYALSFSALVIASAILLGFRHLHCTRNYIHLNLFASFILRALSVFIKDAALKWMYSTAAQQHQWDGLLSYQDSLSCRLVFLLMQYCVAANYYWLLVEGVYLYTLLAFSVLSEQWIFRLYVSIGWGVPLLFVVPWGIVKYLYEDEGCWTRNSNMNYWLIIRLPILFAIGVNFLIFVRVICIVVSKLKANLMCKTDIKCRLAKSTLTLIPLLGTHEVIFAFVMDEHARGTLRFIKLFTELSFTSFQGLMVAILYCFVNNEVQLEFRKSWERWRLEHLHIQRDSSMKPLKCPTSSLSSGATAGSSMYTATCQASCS

hGIPR = target: T2, hGIPR (Homo sapiens, UniProt P48546); assay: Functional cAMP formation (HTRF) in HEK-293 clonal cells expressing hGIPR, 0.1% bovine casein, without or with 1.0% human serum albumin; assay type: cell-based; conditions: 37° C.; for EC50: read-out: hGIPR EC50, nM (SEM, n); for Emax: read-out: hGIPR Emax, % ± SEM
T2 construct: expressed in transfected cells
T2 sequence (P48546 22-466): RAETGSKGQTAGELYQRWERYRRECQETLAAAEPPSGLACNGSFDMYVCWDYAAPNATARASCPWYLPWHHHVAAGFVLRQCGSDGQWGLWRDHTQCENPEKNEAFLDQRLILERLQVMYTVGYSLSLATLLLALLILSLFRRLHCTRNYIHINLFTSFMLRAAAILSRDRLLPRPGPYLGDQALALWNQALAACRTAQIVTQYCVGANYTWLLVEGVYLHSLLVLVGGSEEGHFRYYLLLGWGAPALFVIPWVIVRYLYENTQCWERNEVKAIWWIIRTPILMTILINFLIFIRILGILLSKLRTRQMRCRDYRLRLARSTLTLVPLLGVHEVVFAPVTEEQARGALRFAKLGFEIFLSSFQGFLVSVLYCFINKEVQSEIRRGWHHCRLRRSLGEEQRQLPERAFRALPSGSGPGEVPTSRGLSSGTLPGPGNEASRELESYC
Method in brief: (§1)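 Readings of the HTRF 665/620 nm ratio, which falls as cAMP rises, were converted to nM cAMP using a standard curve after 30 min peptide exposure at 37° C.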

hGCGR = target: T3, hGCGR (Homo sapiens, UniProt P47871); assay: Functional cAMP formation (HTRF) in HEK-293 clonal cells expressing hGCGR, 0.1% bovine casein, without or with 1.0% human serum albumin; assay type: cell-based; conditions: read-out: hGCGR EC50, nM (SEM, n)
T3 construct: expressed in transfected cells
T3 sequence (P47871 26-477): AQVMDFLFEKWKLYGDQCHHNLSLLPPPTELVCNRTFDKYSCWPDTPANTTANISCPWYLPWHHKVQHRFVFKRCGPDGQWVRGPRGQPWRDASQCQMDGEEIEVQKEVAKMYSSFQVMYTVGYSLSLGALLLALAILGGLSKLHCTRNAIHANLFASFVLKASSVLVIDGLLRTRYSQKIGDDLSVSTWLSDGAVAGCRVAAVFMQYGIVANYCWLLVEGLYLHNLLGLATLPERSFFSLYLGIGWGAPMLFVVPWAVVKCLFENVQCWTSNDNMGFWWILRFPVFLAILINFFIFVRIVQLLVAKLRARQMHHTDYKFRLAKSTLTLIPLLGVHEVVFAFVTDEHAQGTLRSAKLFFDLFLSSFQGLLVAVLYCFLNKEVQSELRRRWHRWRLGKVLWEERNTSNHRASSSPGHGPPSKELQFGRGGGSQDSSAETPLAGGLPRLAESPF
Method in brief: as §1

[2] = target: T4, human GIP receptor (hGIPR) (Homo sapiens, UniProt P48546); assay: [125I]-GIP binding, SPA with membranes of CHO cells expressing hGIPR; conditions: human GIPR; geometric mean (SEM, n); read-out: Binding Affinity Ki, nM (SEM, n) hGIPR
T4 construct: expressed in transfected cells; crude membranes
T4 sequence (P48546 22-466): T2 sequence (P48546 22-466)

hGLP-1R = hGLP-1R (Homo sapiens, UniProt P43220); assay: Functional cAMP formation (HTRF) in HEK-293 clonal cells expressing hGLP-1R, 0.1% bovine casein, without or with 1.0% human serum albumin; assay type: cell-based; set-up: expressed in transfected cells; conditions: 37° C.; for EC50: geometric mean, read-out: hGLP-1R EC50, nM (SEM, n); for Emax: percent of maximal response to GLP-1(7-36)NH2, read-out: hGLP-1R Emax, % ± SEM
Sequence of hGLP-1R (P43220 24-463): as the sequence (P43220 24-463) above
Method in brief: as §1

[3] = HEK293, cAMP, 0.1% bovine casein and 1.0% human serum albumin, percent of maximal response to GIP(1-42)NH2
[4] = cAMP, 0.1% bovine casein (no human serum albumin), geometric mean
[5] = cAMP, 37° C., 0.1% bovine casein (no human serum albumin), geometric mean
[6] = cAMP, 37° C., 0.1% bovine casein and 1.0% human serum albumin, geometric mean (SEM, n)
[7] = HEK293, cAMP, 0.1% bovine casein, arithmetic mean
[8] = cAMP, 0.1% bovine casein (no human serum albumin)
[9] = cAMP, 0.1% bovine casein and 1.0% human serum albumin, geometric mean (SEM, n)

Structure (SMILES) | Ki [1] [nM] | EC50 (hGIPR; 0.1% bovine casein and 1.0% human serum albumin, geometric mean) [nM] | Emax (hGIPR; HEK293, 0.1% bovine casein and 1.0% human serum albumin, percent of maximal response to GIP(1-42)NH2) [%] | Emax (hGIPR; HEK293, percent of maximal response to GIP(1-42)NH2, 0.1% bovine casein, arithmetic mean) [%] | EC50 (hGCGR; 0.1% bovine casein and 1.0% human serum albumin, 37° C., geometric mean) [nM] | EC50 (hGCGR; cAMP, incubated at 37° C., 0.1% bovine casein (no human serum albumin), geometric mean) [nM] | Ki [2] [nM] | EC50 (hGLP-1R; 0.1% bovine casein and 1.0% human serum albumin) [nM] | Emax (hGLP-1R; HEK293, 0.1% bovine casein and 1.0% human serum albumin) [%] | Emax (hGIPR; [3]) [%] | EC50 (hGIPR; [4]) [nM] | EC50 (hGCGR; [5]) [nM] | EC50 (hGCGR; [6]) [nM] | Emax (hGLP-1R; HEK293, cAMP, 0.1% bovine casein and 1.0% human serum albumin) [%] | Emax (hGLP-1R; [7]) [%] | EC50 (hGLP-1R; [8]) [nM] | EC50 (hGIPR; [9]) [nM]
CCCCCCCCCCCC(=O)N[C@@H](CCC(=O)NCCOCCOCC(=O)NCCOCCOCC(=O)NCCCC[C@H](NC(=O)[C@H](CO)NC(=O)[C@@H]1CCCN1C(=O)[C@@H]1CCCN1C(=O)[C@@H]1CCCN1C(=O)[C@H](C)NC(=O)CNC(=O)[C@H](CO)NC(=O)[C@H](CO)NC(=O)[C@@H]1CCCN1C(=O)CNC(=O)CNC(=O)[C@H](CCC(=O)O)NC(=O)[C@@H](NC(=O)[C@H](CC(C)C)NC(=O)[C@](C)(Cc1ccc(O)cc1)NC(=O)[C@@H](CCC(=O)O)NC(=O)[C@@H](NC(=O)[C@H](Cc1ccccc1)NC(=O)[C@H](CCC(=O)O)NC(=O)C(C)(C)NC(=O)[C@H](CCC(N)=O)NC(=O)[C@H](C)NC(=O)[C@H](CCCCNC(=O)COCCOCCNC(=O)COCCOCCNC(=O)CC[C@H](NC(=O)CCCCCCCCCCC)C(=O)O)NC(=O)[C@H](CCCN)NC(=O)[C@H](CC(=O)O)NC(=O)[C@H](CC(C)C)NC(=O)[C@](C)(CC(C)C)NC(=O)[C@@H](NC(=O)[C@H](CO)NC(=O)[C@H](Cc1ccncc1)NC(=O)[C@H](CC(=O)O)NC(=O)[C@H](CO)NC(=O)[C@@H](NC(=O)[C@](C)(Cc1ccccc1F)NC(=O)[C@@H](NC(=O)CNC(=O)[C@H](CCC(=O)O)NC(=O)C(C)(C)NC(=O)[C@@H](N)Cc1ccc(O)cc1)[C@@H](C)O)[C@@H](C)O)[C@@H](C)CC)[C@@H](C)CC)[C@@H](C)CC)C(N)=O)C(=O)O [Example 141] | 0.194 | 0.379 | 96 ± 7.42 | 98.8 ± 1.09 | > 9950 | > 9950 | 0.0291 | 5.78 | 115 ± 2.04 | – | – | – | – | – | – | – | –
CC[C@H](C)[C@H](NC(=O)[C@H](CC(C)C)NC(=O)[C@](C)(Cc1ccc(O)cc1)NC(=O)[C@H](CCCCNC(=O)COCCOCCNC(=O)COCCOCCNC(=O)CC[C@H](NC(=O)CCCCCCCCCCCCC(=O)O)C(=O)O)NC(=O)[C@@H](NC(=O)[C@H](Cc1ccccc1)NC(=O)[C@H](CCCN)NC(=O)C(C)(C)NC(=O)[C@H](CCC(N)=O)NC(=O)[C@H](C)NC(=O)[C@H](CCC(N)=O)NC(=O)[C@H](CCCN)NC(=O)[C@H](CC(=O)O)NC(=O)[C@H](CC(C)C)NC(=O)[C@](C)(CC(C)C)NC(=O)[C@@H](NC(=O)C(C)(C)NC(=O)[C@H](Cc1ccncc1)NC(=O)[C@H](CC(=O)O)NC(=O)[C@H](CO)NC(=O)[C@@H](NC(=O)[C@](C)(Cc1ccccc1F)NC(=O)[C@@H](NC(=O)CNC(=O)[C@H](CCC(=O)O)NC(=O)C(C)(C)NC(=O)[C@@H](N)Cc1ccc(O)cc1)[C@@H](C)O)[C@@H](C)O)[C@@H](C)CC)[C@@H](C)CC)C(=O)N[C@@H](CCCCNC(=O)COCCOCCNC(=O)COCCOCCNC(=O)CC[C@H](NC(=O)CCCCCCCCCCCCC(=O)O)C(=O)O)C(=O)NCC(=O)NCC(=O)N1CCC[C@H]1C(=O)N[C@@H](CO)C(=O)N[C@@H](CO)C(=O)NCC(=O)N[C@@H](C)C(=O)N1CCC[C@H]1C(=O)N1CCC[C@H]1C(=O)N1CCC[C@H]1C(=O)N[C@@H](CO)C(N)=O [Example 391] | 0.346 | – | – | – | – | – | 0.0279 | – | – | 88.3 | 0.0101 | > 9950 | > 9950 | 105 | 109 | 0.167 | –
CC[C@H](C)[C@H](NC(=O)[C@H](CC(C)C)NC(=O)[C@](C)(Cc1ccc(O)cc1)NC(=O)[C@H](CCCCNC(=O)COCCOCCNC(=O)CC[C@H](NC(=O)COCCOCCNC(=O)CC[C@H](NC(=O)CCCCCCCCCCCCC(=O)O)C(=O)O)C(=O)O)NC(=O)[C@@H](NC(=O)[C@H](Cc1ccccc1)NC(=O)[C@H](CCCN)NC(=O)C(C)(C)NC(=O)[C@H](CCC(N)=O)NC(=O)[C@H](C)NC(=O)[C@H](CCC(N)=O)NC(=O)[C@H](CCCN)NC(=O)[C@H](CC(=O)O)NC(=O)[C@H](CC(C)C)NC(=O)[C@](C)(CC(C)C)NC(=O)[C@@H](NC(=O)C(C)(C)NC(=O)[C@H](Cc1ccncc1)NC(=O)[C@H](CC(=O)O)NC(=O)[C@H](CO)NC(=O)[C@@H](NC(=O)[C@](C)(Cc1ccccc1F)NC(=O)[C@@H](NC(=O)CNC(=O)[C@H](CCC(=O)O)NC(=O)C(C)(C)NC(=O)[C@@H](N)Cc1ccc(O)cc1)[C@@H](C)O)[C@@H](C)O)[C@@H](C)CC)[C@@H](C)CC)C(=O)N[C@@H](CCCCNC(=O)COCCOCCNC(=O)CC[C@H](NC(=O)COCCOCCNC(=O)CC[C@H](NC(=O)CCCCCCCCCCCCC(=O)O)C(=O)O)C(=O)O)C(=O)NCC(=O)NCC(=O)N1CCC[C@H]1C(=O)N[C@@H](CO)C(=O)N[C@@H](CO)C(=O)NCC(=O)N[C@@H](C)C(=O)N1CCC[C@H]1C(=O)N1CCC[C@H]1C(=O)N1CCC[C@H]1C(=O)N[C@@H](CO)C(N)=O [Example 484] | 0.268 | – | – | – | – | – | 0.0296 | – | – | 91.3 | 0.0136 | > 9950 | > 9950 | – | 118 | 0.17 | 0.453
CC[C@H](C)[C@H](NC(=O)[C@H](CC(C)C)NC(=O)[C@](C)(Cc1ccc(O)cc1)NC(=O)[C@H](CCCCNC(=O)COCCOCCNC(=O)CCCCCNC(=O)CC[C@H](NC(=O)CCCCCCCCCCCCC(=O)O)C(=O)O)NC(=O)[C@@H](NC(=O)[C@H](Cc1ccccc1)NC(=O)[C@H](CCCN)NC(=O)C(C)(C)NC(=O)[C@H](CCC(N)=O)NC(=O)[C@H](C)NC(=O)[C@H](CCC(N)=O)NC(=O)[C@H](CCCN)NC(=O)[C@H](CC(=O)O)NC(=O)[C@H](CC(C)C)NC(=O)[C@](C)(CC(C)C)NC(=O)[C@@H](NC(=O)C(C)(C)NC(=O)[C@H](Cc1ccncc1)NC(=O)[C@H](CC(=O)O)NC(=O)[C@H](CO)NC(=O)[C@@H](NC(=O)[C@](C)(Cc1ccccc1F)NC(=O)[C@@H](NC(=O)CNC(=O)[C@H](CCC(=O)O)NC(=O)C(C)(C)NC(=O)[C@@H](N)Cc1ccc(O)cc1)[C@@H](C)O)[C@@H](C)O)[C@@H](C)CC)[C@@H](C)CC)C(=O)N[C@@H](CCCCNC(=O)COCCOCCNC(=O)CCCCCNC(=O)CC[C@H](NC(=O)CCCCCCCCCCCCC(=O)O)C(=O)O)C(=O)NCC(=O)NCC(=O)N1CCC[C@H]1C(=O)N[C@@H](CO)C(=O)N[C@@H](CO)C(=O)NCC(=O)N[C@@H](C)C(=O)N1CCC[C@H]1C(=O)N1CCC[C@H]1C(=O)N1CCC[C@H]1C(=O)N[C@@H](CO)C(N)=O [Example 449] | 0.201 | – | – | – | – | – | 0.0133 | – | – | 92.1 | 0.0102 | > 9950 | > 9950 | – | 112 | 0.16 | 0.595
